Reference: patent US10759796B2, “CXCR4 inhibitors and uses thereof” (X4 Pharmaceuticals, Inc., priority 2016, dated 2020)
pIC50: −log10 of the molar value.

Assays:
[1] = Fraction of drug unbound to plasma proteins, mouse; type: in vitro ADME; conditions: read-out: Fu (p) %
in vitro = conditions: human, Caco-2, pH 7.4
Summary of the method: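 Compounds at 10 μM in HBSS pH 7.4 (0.1–0.3% DMSO) were dosed on Caco-2 monolayers, apical-to-basolateral and basolateral-to-apical, for 90 min at 37 °C, in duplicate. Monolayer integrity was checked by TEER and lucifer yellow flux, read by fluorescence at 485/535 nm. Compound was quantified by LC-MS/MS and Papp calculated.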

[2] = Fraction of drug unbound to brain proteins, mouse; type: in vitro ADME; conditions: read-out: Fu (b) %
[3] = molecular target: Jurkat cells expressing CXCR4 (Homo sapiens (Human), UniProt P61073); assay: Chemokine (CXCL12-AF647) binding inhibition assay; conditions: CXCL12-AF647 25 ng/mL, read-out: IC50 CXCL-12 binding Jurkat
Chain of Jurkat cells expressing CXCR4 (P61073 whole entry): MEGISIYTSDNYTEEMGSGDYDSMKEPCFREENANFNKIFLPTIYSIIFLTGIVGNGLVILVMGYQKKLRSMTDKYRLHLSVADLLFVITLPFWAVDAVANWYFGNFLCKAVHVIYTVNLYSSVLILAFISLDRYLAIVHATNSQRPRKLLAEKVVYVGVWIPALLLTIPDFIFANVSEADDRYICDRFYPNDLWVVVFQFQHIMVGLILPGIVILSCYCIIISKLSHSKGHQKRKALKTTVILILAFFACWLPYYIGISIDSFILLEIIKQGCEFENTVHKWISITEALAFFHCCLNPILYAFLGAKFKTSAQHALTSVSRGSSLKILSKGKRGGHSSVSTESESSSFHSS
Summary of the method: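 Cells in HBSS, 20 mM HEPES, 0.2% BSA, pH 7.4, preincubated 15 min at room temperature with compound, then 25 ng/mL CXCL12-AF647 for 30 min. After washing and paraformaldehyde fixation, bound ligand read by flow cytometry; percent inhibition calculated from MFI relative to unlabeled and ligand-only controls.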

[4] = Mouse plasma proteins (Table 9)

Row | fraction unbound [1, 4] | Papp A→B at 90 min, 10 μM (in vitro) [×10⁻⁶ cm/s] | Papp B→A at 90 min, 10 μM (in vitro) [×10⁻⁶ cm/s] | efflux ratio at 90 min, 10 μM (in vitro) | fraction unbound ([2]; Mouse brain proteins (Table 9)) | pIC50 [3] | Compound | fraction unbound ([1]; Mouse plasma proteins (Table 12)) | fraction unbound ([2]; Mouse brain proteins (Table 12))
1 |  | 10 to 30 | 10 to 30 | 0.1 to 10 |  | 7.00 to 11.00 | CN1CCN(c2cccc3nc([C@@H]4CCC[C@H](c5ncccc5Cl)N4)cn23)CC1 (single isomer, unassigned) [Compound I-189] |  | 
2 |  | 10 to 30 | 10 to 30 | 0.1 to 10 |  | 6.00 to 7.00 | Cc1cccnc1[C@@H]1CCC[C@H](c2cn3c(-c4cccnc4)cccc3n2)N1C [Compound I-6] |  | 
3 | 0.054 | 0.1 to 10 | 0.1 to 10 | 0.1 to 10 | 0.002 | 7.00 to 11.00 | Cc1cccnc1[C@@H]1CCC[C@H](c2nc3cccc(N4CCN(C)CC4)n3c2Cl)N1C [Compound I-18] |  | 
4 | 0.028 | 0.1 to 10 | 0.1 to 10 | 0.1 to 10 | 0.001 | 7.00 to 11.00 | CCN1CCN(c2cccc3nc([C@H]4CCC[C@@H](c5ncccc5C)N4C)c(Br)n23)CC1 [Compound I-19] |  | 
5 | 0.021 | 0.1 to 10 | 0.1 to 10 | 0.1 to 10 | 0.001 | 7.00 to 11.00 | Cc1cccnc1[C@@H]1CCC[C@H](c2nc3cccc(N4CCN(C(C)C)CC4)n3c2Br)N1C [Compound I-20] |  | 
6 | 0.028 | 0.1 to 10 | 0.1 to 10 | 0.1 to 10 | 0.003 | 7.00 to 11.00 | Cc1cccnc1[C@@H]1CCC[C@H](c2nc3cccc(N4CCC(N(C)C)CC4)n3c2Cl)N1C [Compound I-114] |  | 
7 | 0.053 | 10 to 30 | 10 to 30 | 0.1 to 10 | 0.006 | 7.00 to 11.00 | Cc1cccnc1[C@@H]1CCC[C@H](c2nc3cccc(N4CCN(C)CC4)n3c2Cl)N1 [Compound I-146] |  | 
8 | 0.249 | 0.1 to 10 | 10 to 30 | 0.1 to 10 | 0.071 | 7.00 to 11.00 | Cc1cccnc1[C@@H]1CCC[C@H](c2cn3c(N4CCN(C)CC4)cccc3n2)N1 [Compound I-187] |  | 

Row | Compound | fraction unbound [1, 4] | Papp A→B at 90 min, 10 μM (in vitro) [×10⁻⁶ cm/s] | Papp B→A at 90 min, 10 μM (in vitro) [×10⁻⁶ cm/s] | efflux ratio at 90 min, 10 μM (in vitro) | fraction unbound ([2]; Mouse brain proteins (Table 9)) | pIC50 [3] | fraction unbound ([1]; Mouse plasma proteins (Table 12)) | fraction unbound ([2]; Mouse brain proteins (Table 12))
9 | CN1CCN(c2cccc3nc([C@H]4CCC[C@@H](c5ncccc5Cl)N4)cn23)CC1 (racemic) [Compound I-149] | 0.099 | 10 to 30 | 10 to 30 | 0.1 to 10 | 0.026 | 7.00 to 11.00 |  | 
10 | CN1CCN(c2cccc3nc([C@H]4CCC[C@@H](c5ncccc5Cl)N4)cn23)CC1 (single isomer, unassigned) [Compound I-188] |  | 10 to 30 | 10 to 30 | 0.1 to 10 |  | 7.00 to 11.00 | 0.143 | 0.054
